Data published in PubChem BioAssay AID248 (DTP/NCI, 2004).
Where “and” joins values, the source holds several entries; their conditions need not be identical. Equal entries are not always repeated. Inconclusive results and toxic doses are left out. Square brackets hold non-standard residues; d marks the D form. Peptide text beside a SMILES is read from it. Ac5c = NC1(C(=O)O)CCCC1

Test system: L1210 leukemia ip in BDF1 mice, survival T/C
Assay: NCI In Vivo Anticancer Drug Screen. Data for tumor model L1210 Leukemia (intraperitoneal) in B6D2F1 (BDF1) mice
Conditions: endpoint: mean survival time, higher = longer survival
Outline: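 Tumor cells were implanted, animals were treated, and survival was followed. The result divides the treated measurement by the vehicle-control measurement.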

[1] = dose: 100.0 mg/kg/injection, schedule: Q01DX009 (ip), vehicle: saline with Tween-80
[2] = dose: 200.0 mg/kg/injection, schedule: Q01DX009 (ip), vehicle: saline with Tween-80
[3] = dose: 400.0 mg/kg/injection, schedule: Q01DX009 (ip), vehicle: saline with Tween-80
[4] = dose: 100.0 mg/kg/injection, schedule: Q04DX003 (ip), vehicle: Klucel (hydroxypropylcellulose) (HPC)
[5] = dose: 200.0 mg/kg/injection, schedule: Q04DX003 (ip), vehicle: Klucel (hydroxypropylcellulose) (HPC)
[6] = dose: 400.0 mg/kg/injection, schedule: Q04DX003 (ip), vehicle: Klucel (hydroxypropylcellulose) (HPC)
[7] = dose: 100.0 mg/kg/injection, schedule: Q04DX003 (ip), vehicle: saline with Tween-80
[8] = dose: 200.0 mg/kg/injection, schedule: Q04DX003 (ip), vehicle: saline with Tween-80
[9] = dose: 25.0 mg/kg/injection, schedule: Q04DX002 (ip), vehicle: Klucel (hydroxypropylcellulose) (HPC)
[10] = dose: 50.0 mg/kg/injection, schedule: Q04DX002 (ip), vehicle: Klucel (hydroxypropylcellulose) (HPC)
[11] = dose: 50.0 mg/kg/injection, schedule: Q04DX003 (ip), vehicle: saline with Tween-80

For `CCCCSCCO`, the T/C [1] was 89 % of control, the T/C (dose: 100.0 mg/kg/injection, schedule: Q04DX002 (ip), vehicle: saline with Tween-80) was 96 % of control and the T/C [2] was 96 % of control. The T/C (dose: 200.0 mg/kg/injection, schedule: Q04DX002 (ip), vehicle: saline with Tween-80) was 93 % of control, the T/C [3] was 107 % of control and the T/C (dose: 400.0 mg/kg/injection, schedule: Q04DX002 (ip), vehicle: saline with Tween-80) was 86 % of control.
In the case of `O=C(CN1CC1)NCCCCCCCCNC(=O)CN1CC1`, the T/C (dose: 4.4 mg/kg/injection, schedule: Q01DX001 (ip), vehicle: carboxymethylcellulose (CMC)) is reported as 108 % of control, the T/C (dose: 6.6 mg/kg/injection, schedule: Q01DX001 (ip), vehicle: carboxymethylcellulose (CMC)) is reported as 115 % of control and the T/C (dose: 7.0 mg/kg/injection, schedule: Q01DX009 (ip), vehicle: carboxymethylcellulose (CMC)) is reported as 97 % of control. For the same compound, the T/C (dose: 10.0 mg/kg/injection, schedule: Q01DX001 (ip), vehicle: carboxymethylcellulose (CMC)) was 117 % of control, the T/C (dose: 11.0 mg/kg/injection, schedule: Q01DX009 (ip), vehicle: carboxymethylcellulose (CMC)) was 112 % of control and the T/C (dose: 15.0 mg/kg/injection, schedule: Q01DX001 (ip), vehicle: carboxymethylcellulose (CMC)) was 117 % of control. The T/C (dose: 25.0 mg/kg/injection, schedule: Q01DX009 (ip), vehicle: carboxymethylcellulose (CMC)) was 118 % of control, the T/C (dose: 33.0 mg/kg/injection, schedule: Q01DX009 (ip), vehicle: carboxymethylcellulose (CMC)) was 183 % of control and the T/C (dose: 40.0 mg/kg/injection, schedule: Q04DX003 (ip), vehicle: Klucel (hydroxypropylcellulose) (HPC)) was 154 % of control. The T/C (dose: 50.0 mg/kg/injection, schedule: Q01DX001 (ip), vehicle: carboxymethylcellulose (CMC)) was 152 % of control, the T/C (dose: 50.0 mg/kg/injection, schedule: Q01DX009 (ip), vehicle: carboxymethylcellulose (CMC)) was 104 % of control and the T/C (dose: 60.0 mg/kg/injection, schedule: Q04DX003 (ip), vehicle: Klucel (hydroxypropylcellulose) (HPC)) was 173 % of control. For the same compound, the T/C (dose: 90.0 mg/kg/injection, schedule: Q04DX003 (ip), vehicle: Klucel (hydroxypropylcellulose) (HPC)) was 97 % of control.
In the case of `O=C(O)c1ccc([N+](=O)[O-])cc1P(=O)(O)O`, the T/C (dose: 75.0 mg/kg/injection, schedule: Q04DX003 (ip), vehicle: saline with Tween-80) is reported as 103 % of control.
For `O=C(O)CCC(c1ccccc1)(c1ccccc1)c1ccccc1`, the T/C (dose: 100.0 mg/kg/injection, schedule: Q01DX001 (ip), vehicle: carboxymethylcellulose (CMC)) was 95 % of control, the T/C (dose: 200.0 mg/kg/injection, schedule: Q01DX001 (ip), vehicle: carboxymethylcellulose (CMC)) was 95 % of control and the T/C (dose: 400.0 mg/kg/injection, schedule: Q01DX001 (ip), vehicle: carboxymethylcellulose (CMC)) was 101 % of control.
`O=C(O)CCCc1nccc2ccccc12` was tested, and the T/C (dose: 75.0 mg/kg/injection, schedule: Q01DX001 (ip), vehicle: saline) was 102 % of control and the T/C (dose: 150.0 mg/kg/injection, schedule: Q01DX001 (ip), vehicle: saline) was 92 % of control.
`N#CC(=C1c2ccccc2-c2ccccc21)c1ccccc1` was tested, and the T/C [4] was 100 % of control, the T/C [5] was 105 % of control and the T/C [6] was 98 % of control.
In the case of `NCC(=O)NC1(C(=O)O)CCCC1` (H-Gly-[Ac5c]-OH), the T/C (dose: 16.0 mg/kg/injection, schedule: Q01DX Z (ip), vehicle: carboxymethylcellulose (CMC)) is reported as 104 % of control, the T/C (dose: 24.0 mg/kg/injection, schedule: Q01DX Z (ip), vehicle: carboxymethylcellulose (CMC)) is reported as 109 % of control and the T/C (dose: 30.0 mg/kg/injection, schedule: Q01DX Z (ip), vehicle: other) is reported as 103 % of control. For the same compound, the T/C (dose: 36.0 mg/kg/injection, schedule: Q01DX Z (ip), vehicle: carboxymethylcellulose (CMC)) was 118 % of control, the T/C (dose: 54.0 mg/kg/injection, schedule: Q01DX017 (ip), vehicle: saline) was 157 % of control and the T/C (dose: 54.0 mg/kg/injection, schedule: Q01DX Z (ip), vehicle: saline) was 121 % of control. For the same compound, the T/C (dose: 66.0 mg/kg/injection, schedule: Q01DX Z (ip), vehicle: saline) was 115 % of control, the T/C (dose: 100.0 mg/kg/injection, schedule: Q04DX003 (ip), vehicle: saline) was 103 % of control and the T/C (dose: 120.0 mg/kg/injection, schedule: Q01DX Z (ip), vehicle: saline) was 152 % of control. For the same compound, the T/C (dose: 150.0 mg/kg/injection, schedule: Q01DX Z (ip), vehicle: saline) was 156 % of control, the T/C (dose: 180.0 mg/kg/injection, schedule: Q01DX Z (ip), vehicle: carboxymethylcellulose (CMC)) was 105 % of control and the T/C (dose: 200.0 mg/kg/injection, schedule: Q04DX003 (ip), vehicle: saline) was 124 % of control. The T/C (dose: 225.0 mg/kg/injection, schedule: Q01DX Z (ip), vehicle: saline) was 115 % of control, the T/C (dose: 240.0 mg/kg/injection, schedule: Q01DX Z (ip), vehicle: other) was 124 % of control and the T/C (dose: 400.0 mg/kg/injection, schedule: Q04DX003 (ip), vehicle: saline) was 155 % of control. The T/C (dose: 480.0 mg/kg/injection, schedule: Q01DX Z (ip), vehicle: other) was 88 % of control.
For `Cn1nnc2nnc(-c3ccccc3)n21`, the T/C [1] was 100 % of control, the T/C [7] was 95 % of control and the T/C [2] was 94 % of control. The T/C [8] was 106 % of control, the T/C [3] was 108 % of control and the T/C (dose: 400.0 mg/kg/injection, schedule: Q04DX003 (ip), vehicle: saline with Tween-80) was 98 % of control.
`CCOC(=O)NC(C(N)=O)C(N)=O` was tested, and the T/C [4] was 103 % of control, the T/C [5] was 108 % of control and the T/C [6] was 106 % of control.
In the case of `CCOC(=O)CNC(=O)Nc1ccccc1F`, the T/C (dose: 50.0 mg/kg/injection, schedule: Q01DX009 (ip), vehicle: gum acacia) is reported as 93 % of control and 97 % of control, the T/C (dose: 100.0 mg/kg/injection, schedule: Q01DX001 (ip), vehicle: gum acacia) is reported as 101 % of control and 102 % of control and the T/C (dose: 100.0 mg/kg/injection, schedule: Q04DX002 (ip), vehicle: gum acacia) is reported as 96 % of control and 97 % of control. The T/C (dose: 100.0 mg/kg/injection, schedule: Q04DX003 (ip), vehicle: gum acacia) was 94 % of control and 108 % of control, the T/C (dose: 200.0 mg/kg/injection, schedule: Q01DX001 (ip), vehicle: gum acacia) was 100 % of control and 102 % of control and the T/C (dose: 200.0 mg/kg/injection, schedule: Q04DX002 (ip), vehicle: gum acacia) was 93 % of control and 94 % of control. For the same compound, the T/C (dose: 200.0 mg/kg/injection, schedule: Q04DX003 (ip), vehicle: gum acacia) was 94 % of control and 101 % of control, the T/C (dose: 400.0 mg/kg/injection, schedule: Q01DX001 (ip), vehicle: gum acacia) was 95 % of control and 105 % of control and the T/C (dose: 400.0 mg/kg/injection, schedule: Q01DX009 (ip), vehicle: gum acacia) was 90 % of control and 91 % of control. The T/C (dose: 400.0 mg/kg/injection, schedule: Q04DX002 (ip), vehicle: gum acacia) was 96 % of control and 87 % of control and the T/C (dose: 400.0 mg/kg/injection, schedule: Q04DX003 (ip), vehicle: gum acacia) was 95 % of control and 96 % of control.
In the case of `O=C(COc1ccccc1)c1ccccc1`, the T/C (dose: 12.5 mg/kg/injection, schedule: Q04DX002 (ip), vehicle: Klucel (hydroxypropylcellulose) (HPC)) is reported as 93 % of control, the T/C [9] is reported as 104 % of control and the T/C [10] is reported as 96 % of control. The T/C (dose: 200.0 mg/kg/injection, schedule: Q04DX002 (ip), vehicle: Klucel (hydroxypropylcellulose) (HPC)) was 95 % of control.
In the case of `O=C(O)/C=C/C(=O)Nc1ccc(I)cc1`, the T/C [11] is reported as 104 % of control, the T/C [7] is reported as 104 % of control and the T/C [8] is reported as 104 % of control.
`Cc1nc(-c2ccc3ccc4cccnc4c3n2)no1` was tested, and the T/C [11] was 93 % of control and the T/C [8] was 86 % of control.
In the case of `O=C(NCCCl)Nc1ccccc1`, the T/C (dose: 100.0 mg/kg/injection, schedule: Q01DX001 (ip), vehicle: Klucel (hydroxypropylcellulose) (HPC)) is reported as 93 % of control, the T/C [4] is reported as 122 % of control and the T/C (dose: 200.0 mg/kg/injection, schedule: Q01DX001 (ip), vehicle: Klucel (hydroxypropylcellulose) (HPC)) is reported as 101 % of control. For the same compound, the T/C [5] was 104 % of control.
`CCCC(C)OP(=O)(OC(C)CC)OC(C)CC` (configuration not stated) was tested, and the T/C (dose: 100.0 mg/kg/injection, schedule: Q01DX009 (ip), vehicle: Klucel (hydroxypropylcellulose) (HPC)) was 97 % of control and the T/C (dose: 200.0 mg/kg/injection, schedule: Q01DX009 (ip), vehicle: Klucel (hydroxypropylcellulose) (HPC)) was 97 % of control.
In the case of `O=C(OCc1ccccc1CN1CCCCC1)c1ccccc1`, the T/C [9] is reported as 97 % of control, the T/C [10] is reported as 101 % of control and the T/C (dose: 100.0 mg/kg/injection, schedule: Q04DX002 (ip), vehicle: Klucel (hydroxypropylcellulose) (HPC)) is reported as 97 % of control.
